Measured values: publication PMC9804871, “Effect of Opicapone on Levodopa Pharmacokinetics in Patients with Fluctuating Parkinson's Disease” (Movement Disorders, 2022)

Tested on: patients with PD and end-of-dose motor fluctuations
Test: 12-hour patient on/off monitoring on pharmacokinetics days
Type: in vivo, human (patients with PD)
Settings: for OFF-time / ON-time / ON-time With Dyskinesia / ON-time Without Dyskinesia / Time to Best-ON / Time to ON: mean; for 12-hour OFF-time / 12-hour ON-time / 12-hour ON-time With Dyskinesia / 12-hour ON-time Without Dyskinesia / 12-hour Time to Best-ON / 12-hour Time to ON: mean (SD)
Protocol: Clinical and safety/tolerability outcomes were also assessed as exploratory secondary outcomes. Clinical outcomes included on and off time assessed using patient‐rated tools. The timing of on and off states was registered (in real time) by the investigators during the matching 12‐hour pharmacokinetic evaluation (as such applied on pharmacokinetics days only), and patients also completed 24‐hour patient Hauser on/off diary charts[21] (in 30‐minute blocks) during the 3 days before each pharmacokinetic visit. Diary states of interest were off time and on time, including on without dyskinesia, on with nontroublesome dyskinesia, and on with troublesome dyskinesia. In addition, the Patient Global Impression of Change (PGI‐C) of opicapone 50 mg was evaluated at the end of the LD/CD 400/100 mg plus opicapone treatment compared with before the start of opicapone treatment.[22] Safety and tolerability endpoints included treatment‐emergent adverse events (TEAEs), serious TEAEs, and TEAEs leading to discontinuation.
Clinical outcomes are also presented descriptively. A paired t test was used for the comparison of 12‐hour off and on time, 24‐hour off and on time, time to on, and time to best on between each opicapone‐containing regimen and the regimen without opicapone. Estimates of mean difference and corresponding 90% CIs were reported for all main variables.

[1] = 5-intake LD/CD 500/125mg vs 4-intake LD/CD 400/100mg plus OPC 50mg, 1st LD/CD intake
[2] = 5-intake LD/CD 500/125mg vs 4-intake LD/CD 400/100mg plus OPC 50mg, 2nd LD/CD intake
[3] = 5-intake LD/CD 500/125mg vs 4-intake LD/CD 400/100mg plus OPC 50mg, 3rd LD/CD intake
[4] = 5-intake LD/CD 500/125mg vs 4-intake LD/CD 400/100mg plus OPC 50mg, 4th LD/CD intake
[5] = 5-intake LD/CD 500/125mg vs 4-intake LD/CD 400/100mg plus OPC 50mg
[6] = 5-intake LD/CD 500/125mg vs 5-intake LD/CD 400/100mg plus OPC 50mg, 1st LD/CD intake
[7] = 5-intake LD/CD 500/125mg vs 5-intake LD/CD 400/100mg plus OPC 50mg, 2nd LD/CD intake
[8] = 5-intake LD/CD 500/125mg vs 5-intake LD/CD 400/100mg plus OPC 50mg, 3rd LD/CD intake
[9] = 5-intake LD/CD 500/125mg vs 5-intake LD/CD 400/100mg plus OPC 50mg, 4th LD/CD intake
[10] = 5-intake LD/CD 500/125mg vs 5-intake LD/CD 400/100mg plus OPC 50mg
[11] = five-intake levodopa/carbidopa 500/125 mg vs five-intake levodopa/carbidopa 400/100 mg plus opicapone 50 mg, N 9
[12] = five-intake levodopa/carbidopa 500/125 mg vs four-intake levodopa/carbidopa 400/100 mg plus opicapone 50 mg, N 10
[13] = five-intake levodopa/carbidopa 500/125 mg vs four-intake levodopa/carbidopa 400/100 mg plus opicapone 50 mg, N 12

## levodopa/carbidopa [LD/CD]
[1]
  OFF-time: 79.8 min
  ON-time: 100.3 min
  ON-time With Dyskinesia: 45.0 min
  ON-time Without Dyskinesia: 92.8 min
  Time to Best-ON: 55.0 min
  Time to ON: 38.9 min
[2]
  OFF-time: 106.9 min
  ON-time: 73.1 min
  ON-time With Dyskinesia: 23.3 min
  ON-time Without Dyskinesia: 67.3 min
  Time to Best-ON: 58.8 min
  Time to ON: 50.0 min
[3]
  OFF-time: 89.5 min
  ON-time: 90.5 min
  ON-time With Dyskinesia: 23.8 min
  ON-time Without Dyskinesia: 81.8 min
  Time to Best-ON: 62.0 min
  Time to ON: 40.5 min
[4]
  OFF-time: 84.6 min
  ON-time: 91.3 min
  ON-time With Dyskinesia: 22.5 min
  ON-time Without Dyskinesia: 87.5 min
  Time to Best-ON: 57.9 min
  Time to ON: 42.1 min
[5]
  12-hour OFF-time: 353.3 (80.46) min
  12-hour ON-time: 347.5 (92.53) min
  12-hour ON-time With Dyskinesia: 60.0 (45.14) min
  12-hour ON-time Without Dyskinesia: 322.5 (106.27) min
  12-hour Time to Best-ON: 59.22 (14.92) min
  12-hour Time to ON: 46.14 (12.38) min
[6]
  OFF-time: 88.5 min
  ON-time: 91.5 min
  ON-time With Dyskinesia: 33.8 min
  ON-time Without Dyskinesia: 79.2 min
  Time to Best-ON: 62.7 min
  Time to ON: 41.5 min
[7]
  OFF-time: 103.0 min
  ON-time: 77.0 min
  ON-time With Dyskinesia: 27.5 min
  ON-time Without Dyskinesia: 71.5 min
  Time to Best-ON: 51.7 min
  Time to ON: 36.0 min
[8]
  OFF-time: 86.5 min
  ON-time: 93.5 min
  ON-time With Dyskinesia: 31.7 min
  ON-time Without Dyskinesia: 74.5 min
  Time to Best-ON: 50.0 min
  Time to ON: 44.5 min
[9]
  OFF-time: 96.0 min
  ON-time: 81.0 min
  ON-time With Dyskinesia: 27.5 min
  ON-time Without Dyskinesia: 75.5 min
  Time to Best-ON: 57.5 min
  Time to ON: 52.5 min
[10]
  12-hour OFF-time: 348.1 (103.9) min
  12-hour ON-time: 320.1 (83.80) min
  12-hour ON-time With Dyskinesia: 72.5 (24.24) min
  12-hour ON-time Without Dyskinesia: 280.5 (71.44) min
  12-hour Time to Best-ON: 55.46 (14.86) min
  12-hour Time to ON: 43.13 (11.32) min
[11]
  12-h off time, geometric mean (90% CI): 376.9 (349.9, 406.0) min
  12-h on time, geometric mean (90% CI): 333.1 (298.8, 371.2) min
five-intake levodopa/carbidopa 500/125 mg vs five-intake levodopa/carbidopa 400/100 mg plus opicapone 50 mg, N 10
  12-h time to on, geometric mean (90% CI): 41.84 (36.03, 48.59) min
five-intake levodopa/carbidopa 500/125 mg vs five-intake levodopa/carbidopa 400/100 mg plus opicapone 50 mg, N 12
  12-h time to best on, geometric mean (90% CI): 53.97 (47.84, 60.89) min
[12]
  12-h off time, geometric mean (90% CI): 356.4 (313.2, 405.5) min
  12-h on time, geometric mean (90% CI): 340.3 (292.0, 396.7) min
[13]
  12-h time to best on, geometric mean (90% CI): 57.62 (50.84, 65.31) min
  12-h time to on, geometric mean (90% CI): 44.62 (38.75, 51.39) min
